# Like-named read-outs stand apart in the source and are kept apart here.
# What was measured:
# [1] = target: T1, His tagged PTPN2 (TC45) protein (Homo sapiens, UniProt P17706); test: Mobility Shift Assay (MSA) for PTPN2 inhibitors; type: biochemical; settings: for IC50: enzyme 0.5 nM, substrate 2 μM, 10 minutes preincubation at room temperature; for Thiochromane x-fold>potency biochemical: Table 3, PTPN2 MSA IC50 of chromane comparator over thiochromane
# T1 construct: His; made in house
# T1 sequence (P17706 1-387 isoform P17706-2): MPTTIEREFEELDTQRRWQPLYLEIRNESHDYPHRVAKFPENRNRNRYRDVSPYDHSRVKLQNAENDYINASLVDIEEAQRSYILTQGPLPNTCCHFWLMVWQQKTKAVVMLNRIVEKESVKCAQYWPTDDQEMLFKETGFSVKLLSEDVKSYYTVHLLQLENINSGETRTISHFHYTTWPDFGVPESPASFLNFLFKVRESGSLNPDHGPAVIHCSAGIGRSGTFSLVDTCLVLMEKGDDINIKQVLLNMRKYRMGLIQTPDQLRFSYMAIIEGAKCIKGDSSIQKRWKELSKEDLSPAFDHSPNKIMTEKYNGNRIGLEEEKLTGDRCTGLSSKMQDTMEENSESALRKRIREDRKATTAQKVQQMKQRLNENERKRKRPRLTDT
# Procedure: Example 43: Mobility Shift Assay (MSA) Used to Determine Potency of PTPN2 Inhibitors
# Compound activity was determined using in house His tagged PTPN2 (TC45) protein (SEQ ID NO: 1) in an in vitro enzymatic reaction. The enzymatic assay used to determine activity was a mobility shift assay using a LabChip EZ Reader by Caliper Life Sciences. The enzymatic reaction was carried out in assay buffer (50 mM HEPES pH 7.5, 1 mM EGTA, 10 mM EDTA, 0.01% Tween® 20, and 2 mM DTT). The compounds were dispensed on a white 384 well ProxiPlate™ (PerkinElmer Catalog #6008289) plate using the Labcyte Echo at varying concentrations (12 point, 1:3 dilution). The enzyme (at 0.5 nM) was incubated with compound for 10 minutes at room temperature. Thereafter, the substrate (phosphorylated insulin receptor probe sequence: ((OG488)-(NH—CH2—CH2—O—CH2—CH2—O—CH2—CO)-T-R-D-I—(PY)-E-T-D-Y—Y—R—K—K—NH2) (SEQ ID NO: 2) was added at 2 μM to the plates and incubated for another 10 minutes at room temperature. Finally, a quench solution (water and 4-bromo-3-(2-oxo-2-propoxyethoxy)-5-(3-{[1-(phenylmethanesulfonyl)piperidin-4-yl]amino}phenyl)thiophene-2-carboxylic acid) was added to the plates, which were then run on the EZ Reader (excitation 488 nm, emission 530 nm) to measure % conversion (the amount of phosphorylated substrate which was de-phosphorylated by PTPN2). […] The % inhibition was then used to calculate the IC50 values.
# [2] = target: T2, His tagged full-length PTPN1 protein (Homo sapiens, UniProt P18031); test: Mobility Shift Assay (MSA) for PTPN1 inhibitors; type: biochemical; settings: enzyme 0.5 nM, substrate 2 μM, 10 minutes preincubation at room temperature
# T2 construct: His; made in house
# T2 sequence (P18031 1-435): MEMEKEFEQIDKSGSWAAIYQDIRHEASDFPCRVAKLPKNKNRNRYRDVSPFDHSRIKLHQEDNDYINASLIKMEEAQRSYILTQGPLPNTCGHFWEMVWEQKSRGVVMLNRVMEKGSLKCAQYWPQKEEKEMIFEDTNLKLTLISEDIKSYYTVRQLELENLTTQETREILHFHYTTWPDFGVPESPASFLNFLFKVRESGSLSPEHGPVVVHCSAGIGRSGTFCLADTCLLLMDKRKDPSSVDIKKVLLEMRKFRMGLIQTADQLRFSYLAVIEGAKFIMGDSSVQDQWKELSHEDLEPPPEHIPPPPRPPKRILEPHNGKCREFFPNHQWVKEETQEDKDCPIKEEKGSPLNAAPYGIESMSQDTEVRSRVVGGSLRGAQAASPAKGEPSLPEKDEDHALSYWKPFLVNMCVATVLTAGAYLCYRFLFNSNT
# Procedure: Example 44: Mobility Shift Assay (MSA) Used to Determine Potency of PTPN1 Inhibitors
# Compound activity was determined using in house His tagged full-length PTPN1 protein (SEQ ID NO: 3) in an in vitro enzymatic reaction. The enzymatic assay used to determine activity is a mobility shift assay using a LabChip EZ Reader by Caliper Life Sciences. The enzymatic reaction was carried out in assay buffer (50 mM HEPES pH 7.5, 1 mM EGTA, 10 mM EDTA, 0.010% Tween® 20, and 2 mM DTT). The compounds were dispensed on a white 384 well ProxiPlate™ (PerkinElmer Cat #6008289) plate using a Labcyte Echo® liquid handler at varying concentrations (12 point, 1:3 dilution). The enzyme (at 0.5 nM) was incubated with compound for 10 minutes at room temperature. Thereafter, the substrate (phosphorylated insulin receptor probe sequence: ((OG488)-(NH—CH2—CH2—O—CH2—CH2—O—CH2—CO)-T-R-D-I—(PY)-E-T-D-Y—Y—R—K—K—NH2) (SEQ ID NO: 2) was added at 2 μM to the plates and incubated for another 10 minutes at room temperature. Finally, a quench solution (water and 4-bromo-3-(2-oxo-2-propoxyethoxy)-5-(3-{[1-(phenylmethanesulfonyl)piperidin-4-yl]amino}phenyl)thiophene-2-carboxylic acid) was added to the plates, which were then run on the EZ Reader (excitation 488 nm, emission 530 nm) to measure % conversion (the amount of phosphorylated substrate which was de-phosphorylated by PTPN1). […] The % inhibition was then used to calculate the IC50 values.
# [3] = tested on: IFNγ-induced STAT1 phosphorylation (pSTAT1) in B16F10 cells; test: B16F10 Phospho-STAT1 HTRF proximal pharmacodynamic (PD) assay; type: cell-based, murine; settings: for EC50: B16-F10; for Thiochromane x-fold>potency cellular: pSTAT1 EC50 of chromane comparator over thiochromane
# Procedure: Example 45: B16F10 (Murine Melanoma Cells) Phospho-STAT1 HTRF Proximal Pharmacodynamic (PD) Assay
# B16F10 cells were grown and maintained in high glucose DMEM (Gibco, Catalog #11965-092, Dun Laoghaire Co Dublin) supplemented with 10% fetal bovine serum (Gibco, Catalog #10082-139, Dun Laoghaire Co Dublin). The cells were pelleted and resuspended in high glucose DMEM without phenol red (Gibco, Catalog #11054-020, Dun Laoghaire Co Dublin), supplemented with 10% fetal bovine serum and plated in a 384 well Corning plate (product #3765, Corning, NY) at 11,000 cells per well in a volume of 20 μL. The cells were dosed with the compounds of interest using an Echo Liquid Handler (Beckman Coulter, Brea, CA) at 50 μM top dose with 3-fold dilutions down to 0.002679 μM for a 10-point dose response. The plate was incubated for 3 hours at 37° C. and subsequently treated with recombinant mouse IFNγ (R&D Systems, Catalog #485-MI, Minneapolis, MN; 100 nM final concentration) for 10 minutes at 37° C. to induce STAT1 phosphorylation followed by 3.3 μM staurosporine treatment for 1 hour at 37° C. to terminate phosphorylation. Media was then aspirated and 20 μL of 1× lysis buffer/blocking reagent (Cisbio Phospho-STAT1 kit, part #63ADK026PEH, Bedford, MA) was added. The plate was placed on a plate shaker for 30 minutes at room temperature, sealed, and stored at −80° C. until needed. To thaw, the plate was placed on shaker at room temperature until completely thawed while the antibody master mix was made (1:40 Phospho-STAT1 Eu Cryptate antibody, 1:40 Phospho-STAT1 d2 antibody, with the detection buffer; Cisbio Phospho-STAT1 kit, part #63ADK026PEH, Bedford, MA). The antibody master mix was then dispensed at 4 μL per well into a 384 ProxiPlate Plus (PerkinElmer, part #6008289, Waltham, MA) and 16 μL of lysate was added from the Corning plate to the Proxiplate using a VIAFLO 384 (INTEGRA). The plate was incubated for 3 hours at room temperature and read on an EnVision® (Perkin Elmer) plate reader with laser excitation at 335 nm and emission at 665 nm. Dotmatics Studies (Bishop's Stortford, UK) was utilized to generate all dose-response curves and calculate EC50s and are shown in Table 2.
# [4] = Table 2, 3 hours compound, then mouse IFNγ 100 nM 10 minutes, top dose 50 μM, read-out: B16F10 IFNγ Induced pSTAT1 EC50
# [5] = Mus musculus, Table 3, B16F10 cells, IFNγ-induced, thiochromanes (X = S) and chromane comparators (X = O), read-out: pSTAT1 EC50
SMILES,IC50 [1],IC50 [2],"EC50 [3, 4]",Thiochromane x-fold>potency biochemical [1],"EC50 [3, 5]",Thiochromane x-fold>potency cellular ([3]; Table 3)
"O=C1CN(c2c(O)cc3c(c2F)C[C@H](NCCc2ccccc2)CS3)S(=O)(=O)N1 [Compound 123, 5-{(3S)-5-fluoro-7-hydroxy-3-[(2-phenylethyl)amino]-3,4-dihydro-2H-1-benzothiopyran-6-yl}-1λ^6,2,5-thiadiazolidine-1,1,3-trione]",< 10 nM,10 to 100 nM,2760 nM,,,
"O=C1CN(c2c(O)cc3c(c2F)C[C@H](NCC2CCOCC2)CS3)S(=O)(=O)N1 [Compound 110, 5-[(3S)-5-fluoro-7-hydroxy-3-{[(oxan-4-yl)methyl]amino}-3,4-dihydro-2H-1-benzothiopyran-6-yl]-1λ^6,2,5-thiadiazolidine-1,1,3-trione]",10 to 100 nM,10 to 100 nM,6990 nM,,,
"O=C1CN(c2c(O)cc3c(c2F)C[C@H](NCCC2CC(F)(F)C2)CS3)S(=O)(=O)N1 [Compound 117, 5-[(3S)-3-{[2-(3,3-difluorocyclobutyl)ethyl]amino}-5-fluoro-7-hydroxy-3,4-dihydro-2H-1-benzothiopyran-6-yl]-1λ^6,2,5-thiadiazolidine-1,1,3-trione]",< 10 nM,10 to 100 nM,723 nM,,,
"CC(C)(CO)CCN[C@@H]1CSc2cc(O)c(N3CC(=O)NS3(=O)=O)c(F)c2C1 [Compound 106, 5-{(3S)-5-fluoro-7-hydroxy-3-[(4-hydroxy-3,3-dimethylbutyl)amino]-3,4-dihydro-2H-1-benzothiopyran-6-yl}-1λ^6,2,5-thiadiazolidine-1,1,3-trione]",< 10 nM,10 to 100 nM,11900 nM,,,
"COCCCN[C@@H]1CSc2cc(O)c(N3CC(=O)NS3(=O)=O)c(F)c2C1 [Compound 130, 5-{(3S)-5-fluoro-7-hydroxy-3-[(3-methoxypropyl)amino]-3,4-dihydro-2H-1-benzothiopyran-6-yl}-1λ^6,2,5-thiadiazolidine-1,1,3-trione]",10 to 100 nM,10 to 100 nM,4110 nM,,,
"O=C1CN(c2c(O)cc3c(c2F)C[C@H](NCC2CC2(F)F)CS3)S(=O)(=O)N1 (stereo partly drawn) [Compound 126, 5-[(3S)-3-{[(2,2-difluorocyclopropyl)methyl]amino}-5-fluoro-7-hydroxy-3,4-dihydro-2H-1-benzothiopyran-6-yl]-1λ^6,2,5-thiadiazolidine-1,1,3-trione]",10 to 100 nM,10 to 100 nM,25500 nM,,,
"CCC(CC)CCN[C@@H]1CSc2cc(O)c(N3CC(=O)NS3(=O)=O)c(F)c2C1 [Compound 119, 5-{(3S)-3-[(3-ethylpentyl)amino]-5-fluoro-7-hydroxy-3,4-dihydro-2H-1-benzothiopyran-6-yl}-1λ^6,2,5-thiadiazolidine-1,1,3-trione]",< 10 nM,10 to 100 nM,6660 nM,,,
"O=C1CN(c2c(O)cc3c(c2F)C[C@H](NCCCc2ccccc2)CS3)S(=O)(=O)N1 [Compound 136, 5-{(3S)-5-fluoro-7-hydroxy-3-[(3-phenylpropyl)amino]-3,4-dihydro-2H-1-benzothiopyran-6-yl}-1λ^6,2,5-thiadiazolidine-1,1,3-trione]",10 to 100 nM,10 to 100 nM,27600 nM,0.8,27600 nM,>1.8
"CCC(C)CCN[C@@H]1CSc2cc(O)c(N3CC(=O)NS3(=O)=O)c(F)c2C1 (stereo partly drawn) [Compound 108, 5-{(3S)-5-fluoro-7-hydroxy-3-[(3-methylpentyl)amino]-3,4-dihydro-2H-1-benzothiopyran-6-yl}-1λ^6,2,5-thiadiazolidine-1,1,3-trione]",< 10 nM,< 10 nM,1760 nM,,,
"O=C1CN(c2c(O)cc3c(c2F)C[C@H](NCC2CCC(C(F)(F)F)CC2)CS3)S(=O)(=O)N1 (stereo partly drawn) [Compound 139, 5-[(3S)-5-fluoro-7-hydroxy-3-({[4-(trifluoromethyl)cyclohexyl]methyl}amino)-3,4-dihydro-2H-1-benzothiopyran-6-yl]-1λ^6,2,5-thiadiazolidine-1,1,3-trione]",< 10 nM,10 to 100 nM,> 50000 nM,5.4,> 50000 nM,~1.0
"CCCN[C@@H]1CSc2cc(O)c(N3CC(=O)NS3(=O)=O)c(F)c2C1 [Compound 107, 5-[(3S)-5-fluoro-7-hydroxy-3-(propylamino)-3,4-dihydro-2H-1-benzothiopyran-6-yl]-1λ^6,2,5-thiadiazolidine-1,1,3-trione]",10 to 100 nM,10 to 100 nM,3960 nM,,,
